Measured values reported in patent US9592226B2, “Solenopsin and derivatives, therapeutic compositions; and methods related thereto” (priority 2013, dated 2017).
Entries after “also recorded” stand apart in the source; their conditions may differ.

What was measured:
angiogenesis = settings: Arbiser et al., Blood 2007; cited from earlier work
Pseudomonas aeruginosa = settings: Park et al. 2008; cited from earlier work
phosphoinositol-3 kinase = settings: p53 deficient renal cell carcinoma cell line 786-O; Arbiser et al. 2007; cited from earlier work
[1] = test system: SVR (murine angiosarcoma) cells; experiment: Proliferation study, SVR cells (Coulter Counter); type: cell-based; settings: 10 μM, 24 h, cell count vs DMSO
Text: (§1) Different analogs of solenopsin were synthesized (FIG. 1) in order to explore their structure-activity relationships. The aliphatic side chains of S14 and S13 are 4 and 8 carbons longer compared to solenopsin, respectively. S11 has an 8-carbon longer side chain, as well as an extra methyl group in the 4-position of the piperidine ring. S15 has an 11-carbon side chain similar to solenopsin, but the first carbon in the side chain is hydroxylated. Also, S15 lacks the methyl group in the 2-position of the piperidine ring. All the analogs together with (−)- and (+)-solenosin A, and the isomeric mixture of the two cis-isomers of solenopsin (S12) were tested, at 10 μM, on two different human melanoma cell lines (A375 and A2058) and one murine angiosarcoma cell line (SVR) (FIG. 2). The A375 and A2058 melanoma cell lines express mutant Braf and the SVR murine angiosarcoma cell line expresses mutant Hras. One important difference between the two human melanoma cell lines is the A2058 is PTEN null, whereas A375 is not.
(§2) A375 (human melanoma), A2058 (human melanoma), or SVR (murine angiosarcoma) cells were plated at a concentration of 50,000 cells/well. The cells were treated with 10 μM of (−)-solenopsin A, (+)-solenopsin A, or analogs (S11-S15) for 24 hours, at which point cells were counted with a Coulter Counter.

UM-SCC1A cells = experiment: Oxygen consumption rate (Seahorse) in UM-SCC1A cells; type: cell-based, human; settings: 10 μM, 24 h
Experimental: UM-SCC1A cells were plated 15,000/well and treated for 24 h with 10 μM of (+)-solenopsin A ((+) Sol. A), (−)-solenopsin A ((−) Sol. A), and solenopsin analogs S11-S15. Oxygen consumption rate (OCR) was measured as pmoles O2/minute using a Seahorse Biosciences instrument. Data shown are an average of three experiments±s.d.
At least not in Braf mutated cell lines, such as A375 and A2058. One possibility is that solenopsin, like ceramide, may also localize to mitochondria, and cause mitochondrial induced cell death. Cellular oxygen consumption rate can be indicative of mitochondrial function. Therefore, to investigate if solenopsin A and analogs do alter mitochondrial function, UM-SCC1A (human head and neck SCC) cells were then treated with 10 μM compound or the equivalent amount of DMSO and incubated for 24 hours. A SeaHorse Bioscience instrument was used to measure the oxygen consumption rate (OCR). […] Mitophagy can be one reason for decreased OCR, but further assays are needed to confirm the cause for the observed differences.
UM-SCC1A cells were plated 15,000 per well in 200 μl DMEM supplemented with 10% FBS and 1% penicillin-streptomycin in each well of a 96-well Seahorse plate and incubated overnight at 37° C. with 5% CO2. Cells were then treated with 10 μM compound or the equivalent amount of DMSO and incubated for 24 hours. OCR was measured as pmoles O2/minute using the Seahorse Biociences instrument per manufacturer's instructions. Protein amounts in each well were then quantified using the Thermo Scientific Pierce Protein Assay, per manufacturer's instructions.

A375 cells = experiment: Superoxide (ROS) by DHE fluorescence, A375 cells; type: cell-based, human; settings: 10 μM, 24 h
Experimental: Cells were treated for 24 h with 10 μM of (+)-solenopsin A ((+) Sol. A), (−)-solenopsin A ((−) Sol. A), and solenopsin analogs S11-S15. Cells were trypsined and incubated for 10 min in 10 μM dihydroethedium (DHE), followed by analysis with a FACScan flow cytometer. Data shown are an average of three experiments±s.d.
A375 or SVR cells were plated in 6 cm dishes. After cells had adhered to the plates, they were treated for 24 h with 10 μM DMSO solutions of (+)-solenopsin A, (−)-solenopsin A, or analogs (S11-S15) at which time the media was aspirated. Cells were washed with 2 mL PBS then treated with 0.05% trypsin/0.53 mM EDTA (Fisher) for 3 min at RT. Cells were collected and then pelleted at 600 g for 2 min. The supernatant was aspirated and the cells were suspended in 10 uM dihydroethidium (DHE) (Life Technologies) and incubated for 10 min in the dark at RT while shaking Following this incubation, cells were kept until counting on a Becton Dickinson FACScan flow cytometer. 10,000 cells were counted and analyzed by FlowJo 7.6.4. Mean values of DHE fluorescence intensity were compared.

[2] = test system: A2058 (human melanoma) cells; experiment: Proliferation study, A2058 cells (Coulter Counter); type: cell-based; settings: 10 μM, 24 h, cell count vs DMSO
Text: as §1, §2

[3] = test system: A375 (human melanoma) cells; experiment: Proliferation study, A375 cells (Coulter Counter); type: cell-based; settings: 10 μM, 24 h, cell count vs DMSO
Experimental: 50,000 cells/well were plated and treated for 24 h with each compound. The first DMSO bar in each chart serves as control for (+)-solenopsin A, (−)-solenopsin A, and ceramide C2. The second DMSO bar is the control for S11-S15.
as §1, §2

p-pMAPK 44/42 = experiment: Western blot p-pMAPK 44/42 in SVR cells; type: cell-based, murine; settings: 10 μM (ceramide C2 20 μM), 24 h
Experimental: (§3) A375, SVR, and A2058 cells were treated for 24 h with ceramide C2 (20 μM), (+)-solenopsin A ((+) Sol. A, 10 μM), (−)-solenopsin A ((−) Sol. A, 10 μM), or solenopsin analogs S11-S15 (10 μM). The expression of p-AKT S473, p-pMAPK 44/42, and B-actin was determined by western blotting.
(§4) A375, SVR, and A2058 cells treated with solenopsin A and analogs were evaluated by Western-blotting with pAkt S473, p-pMAPK 44/42, and β-actin (FIG. 5). Although the proliferation results were more or less similar in all three cell lines, the protein expressions varied. In A375's an up-regulation of pAkt S473 and p-pMAPK 44/42 could be seen for (+)- and (−)-solenopsin A, as well as for analogs S12-S15 (FIG. 5). […] The results for cell line A2058 is similar to A375, i.e. there is an up-regulation of p-Akt S473 and p-pMAPK 44/42 in the treatment groups compared to the control. […] Both human melanoma cell lines (A375 and A2058) are reactive oxygen driven tumors, whereas the murine angiosarcoma cell line (SVR) is not. […]
(§5) Cells were grown in T-25 flasks until 80% confluent followed by treatment for 24 h with 10 μM DMSO solutions of (+)-solenopsin A, (−)-solenopsin A, or analogs (S11-S15). Sample aliquots normalized for protein quantities were size fractionated by 10% SDS-PAGE, and the proteins were transferred to a PVDF membrane. […]

p-Akt S473 = experiment: Western blot p-Akt S473 in SVR cells; type: cell-based, murine; settings: 10 μM (ceramide C2 20 μM), 24 h
Experimental: as §3, §4, §5

[4] = target: neuronal nitric oxide synthase (Homo sapiens, UniProt P29475); settings: Yi et al., Int J Toxicol 2003; cited from earlier work
PTEN = experiment: Lipid raft fractionation (sucrose density gradient), PTEN translocation to membrane rafts in A375 cells; type: cell-based, human; settings: 50 μM (positive control), 1 h
Experimental: A375 cells were treated for 1 h with: ceramide C2 (50 μM), (+)-solenopsin A ((+) Sol. A, 20 μM), (−)-solenopsin A ((−) Sol. A, 20 μM), or solenopsin analogs S11-S15 (20 μM). Cells were lysed in 0.5% Brij96 in TNEV, loaded onto the 5-40% sucrose gradient, and centrifuged at 34,000 rpm at 4° C. for 22 h. Thirteen fractions were collected, starting from the top of the tube. Equal volumes of each fraction were analyzed by Western blotting with caveolin and PTEN antibodies. Caveolin serves a positive control for which fractions that contain lipid rafts.
Caveolin was used as a positive marker to identify lipid raft fractions and an anti-PTEN antibody was used to identify PTEN-containing fractions (FIG. 3). A375 cells were treated for 1 h with 20 μM of (+)-solenopsin, (−)-solenopsin, or analogs S11-S15. […]
Cells were grown in T-75 flasks until 80% confluent followed by treatment for 1 h with 20 μM DMSO solutions of (+)-solenopsin A, (−)-solenopsin A, analogs (S12-S15), or 50 μM of ceramide C2 in DMSO. […] Equal volumes of each fraction were analyzed by Western blot with relevant antibodies.
as §5

Chain of neuronal nitric oxide synthase (P29475 whole entry): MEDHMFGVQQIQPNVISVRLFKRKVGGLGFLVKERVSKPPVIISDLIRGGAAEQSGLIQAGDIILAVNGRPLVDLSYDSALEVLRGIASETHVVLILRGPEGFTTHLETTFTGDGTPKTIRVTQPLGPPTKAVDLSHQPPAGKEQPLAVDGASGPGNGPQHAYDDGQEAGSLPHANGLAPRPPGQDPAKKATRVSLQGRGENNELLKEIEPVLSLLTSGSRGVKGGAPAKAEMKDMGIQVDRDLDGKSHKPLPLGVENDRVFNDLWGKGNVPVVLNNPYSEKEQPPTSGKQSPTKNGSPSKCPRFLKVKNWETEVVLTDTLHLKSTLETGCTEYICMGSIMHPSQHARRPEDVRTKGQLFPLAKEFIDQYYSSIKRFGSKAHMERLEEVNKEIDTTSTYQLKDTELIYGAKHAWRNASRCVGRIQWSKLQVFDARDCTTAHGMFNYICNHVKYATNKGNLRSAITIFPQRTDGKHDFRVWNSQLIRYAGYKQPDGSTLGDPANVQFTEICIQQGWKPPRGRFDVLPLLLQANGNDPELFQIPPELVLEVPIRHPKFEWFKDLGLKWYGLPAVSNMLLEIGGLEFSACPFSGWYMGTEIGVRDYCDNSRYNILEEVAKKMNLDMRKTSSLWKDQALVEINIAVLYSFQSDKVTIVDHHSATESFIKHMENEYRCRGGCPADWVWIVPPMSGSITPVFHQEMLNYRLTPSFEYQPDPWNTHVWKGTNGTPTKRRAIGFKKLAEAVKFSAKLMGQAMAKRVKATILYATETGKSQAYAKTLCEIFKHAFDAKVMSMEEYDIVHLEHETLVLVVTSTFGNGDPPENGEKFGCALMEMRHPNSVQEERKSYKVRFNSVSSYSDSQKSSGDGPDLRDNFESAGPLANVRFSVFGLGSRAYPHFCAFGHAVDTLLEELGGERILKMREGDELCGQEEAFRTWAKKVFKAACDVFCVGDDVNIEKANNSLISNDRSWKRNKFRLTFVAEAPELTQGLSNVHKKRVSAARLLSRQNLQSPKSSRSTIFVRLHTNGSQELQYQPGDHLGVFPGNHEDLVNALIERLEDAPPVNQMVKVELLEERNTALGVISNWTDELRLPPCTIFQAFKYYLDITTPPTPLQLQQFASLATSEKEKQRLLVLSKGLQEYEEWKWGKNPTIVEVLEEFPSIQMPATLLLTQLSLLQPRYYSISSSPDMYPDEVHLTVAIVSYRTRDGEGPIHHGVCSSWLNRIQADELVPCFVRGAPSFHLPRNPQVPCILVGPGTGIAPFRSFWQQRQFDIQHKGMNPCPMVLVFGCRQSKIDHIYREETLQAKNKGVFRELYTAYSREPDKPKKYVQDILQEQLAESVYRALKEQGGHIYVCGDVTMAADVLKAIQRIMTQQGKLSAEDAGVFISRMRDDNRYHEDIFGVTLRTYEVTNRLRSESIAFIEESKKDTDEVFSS

Compound: CCCCCCCCCCCC1CCCC(C)N1 (centres unmarked) [Solenopsin, 2-methyl-6-nundecylpiperidine]
- anti-angiogenic activity (angiogenesis): anti-angiogenic activity
- quorum sensing in Pseudomonas aeruginosa (Pseudomonas aeruginosa): blocks quorum sensing
- phosphoinositol-3 kinase (phosphoinositol-3 kinase): downregulated phosphoinositol-3 kinase

Compound: CCCCCCCCCCCCCCCCCCCC1CC(C)CC(C)N1 (centres unmarked) [Compound S11, 2,4-Dimethyl-6-nonadecylpiperidine]
- antiproliferative effect [1]: no significant antiproliferative effect
- oxygen consumption rate (OCR) compared to DMSO control (UM-SCC1A cells): little change compared to the control
- effect on superoxide levels (DHE fluorescence) (A375 cells): no effect on superoxide levels
- antiproliferative effect [2]: no significant antiproliferative effect
- antiproliferative effect [3]: no significant antiproliferative effect

Compound: CCCCCCCCCCCCCCCC1CCCC(C)N1 (centres unmarked) [Compound S14, 2-Methyl-6-pentadecylpiperidine]
- expression of p-pMAPK 44/42 (p-pMAPK 44/42): down-regulated
- antiproliferative effect [1]: equally as effective as solenopsin A; also recorded: most potent analog
- expression of p-Akt S473 (p-Akt S473): down-regulated
- oxygen consumption rate (OCR) compared to DMSO control (UM-SCC1A cells): drastically reduced OCR
- antiproliferative effect [2]: equally as effective as solenopsin A; also recorded: approximately equally as potent as (−)- and (+)-solenopsin A
- antiproliferative effect [3]: equally as effective as solenopsin A; also recorded: most potent analog

Compound: CCCCCCCCCCC(O)C1CCCCN1 (centres unmarked) [Compound S15, 1-(Piperidin-2-yl)undecan-1-ol]
- expression of p-pMAPK 44/42 (p-pMAPK 44/42): down-regulated
- antiproliferative effect [1]: equally as effective as solenopsin A; also recorded: potent antiproliferative effect
- expression of p-Akt S473 (p-Akt S473): down-regulated
- oxygen consumption rate (OCR) compared to DMSO control (UM-SCC1A cells): drastically reduced OCR
- antiproliferative effect [2]: equally as effective as solenopsin A; also recorded: potent antiproliferative effect; also recorded: most potent analog
- antiproliferative effect [3]: equally as effective as solenopsin A; also recorded: potent antiproliferative effect

Compound: CCCCCCCCCCCC1CCCC(C)N1 (centres unmarked) [isosolenopsin A, 2-methyl-6-nundecylpiperidine]
- inhibition of neuronal nitric oxide synthase [4]: potent and selective inhibitor

Compound: Ceramide
- amount of PTEN in the lipid raft fractions (PTEN): higher amount of PTEN in the lipid raft fractions

Compound: CCCCCCCCCCCC1CCCC(C)N1 (centres unmarked) [Compound S12, 2-Methyl-6-undecylpiperidine]
- antiproliferative effect [1]: anti-proliferative properties, although not as potent as solenopsin A itself; also recorded: clearly weaker than for the (−)- and (+)-solenopsin A
- oxygen consumption rate (OCR) compared to DMSO control (UM-SCC1A cells): drastically reduced OCR
- antiproliferative effect [2]: anti-proliferative properties, although not as potent as solenopsin A itself; also recorded: clearly weaker than for the (−)- and (+)-solenopsin A
- antiproliferative effect [3]: anti-proliferative properties, although not as potent as solenopsin A itself; also recorded: clearly weaker than for the (−)- and (+)-solenopsin A
